Laboratory results as given in patent US20220380331A1, “TREATMENT OF CONDITIONS OF THE NERVOUS SYSTEM” (priority 2019, published 2022).

Assays:
spinal cord injury = test: 8 weeks PNNi with sustained rehabilitation after spinal cord injury, hindlimb motor recovery; format: in vivo, rat; settings: terminated 2-3 weeks before end, continued rehabilitative training
From the text: FIG. […]): Limiting PNNi administration alongside sustained rehabilitation allows further hindlimb (HL) motor recovery. […] Bar graph showing the percentage of animals that were able to achieve forelimb-hindlimb (FL-HL) coordination at 9 weeks post-injury (WPI) at the end of PNNi administration, 10 and 12 WPI (B). […] (For groups, n=10 and 9 for 8 week PNNi and 8 week PNNi+T, respectively. Statistics, A, C-E: two-way mixed factorial ANOVA; significance levels: *p<0.05 **p<0.01 and ***p<0.001. A, C, D: Error bars are ±SEM.) Training was comprised of distributed practice quadrupedal interval treadmill training to provide task-specific rehabilitation. The first session commenced 7 days post injury (DPI) following locomotor behavioural tests described below. Daily training consisted of 10 minutes on the treadmill, followed by a 10 minute break before a final 10 minute session on the treadmill. Rats were trained five times a week at the maximal speed that they could maintain consecutive stepping for each 10-minute session on the treadmill. In order to enhance plasticity for effective functional recovery, we administer PNNi for 8 weeks in combination with 11 weeks of rehabilitation. Limiting PNNi administration alongside sustained rehabilitation allows further hindlimb (HL) motor but not sensory recovery (FIG. 12). […]

PNN-HEK293 cells = test: Immunocytochemistry of PNN formation (WFA) with PNNi analogues; format: cell-based, human
Description: To compare the efficacy of PNNi, JD009, and JD013 in reducing PNN formation, immunocytochemistry was conducted using the N-acetylgalactosamine-binding lectin WFA to label PNNs. PNN-HEK293 cells were exposed to 0.5 mM and 1 mM of the compounds for 3 days in vitro. […] Quantification of WFA fluorescence intensity per cell was derived in matched regions of interest (ROI) and normalising overall WFA fluorescence intensity to cell number.

rats, mice and rabbits = settings: very high doses; cited from earlier work

Compound: Cc1cc(=O)oc2cc(O)ccc12 [PNNi, 4-methylumbelliferone]
- hindlimb (HL) motor recovery (spinal cord injury): a further HL improvement was observed
- PNN morphology and expression (WFA fluorescence intensity per cell) (PNN-HEK293 cells; 0.5 mM and 1 mM, 3 days in vitro): insufficient to cause substantial changes in PNN morphology and expression
- PNN morphology and expression (WFA staining intensity) (PNN-HEK293 cells; 1 mM and 2 mM (FIG. 14 legend)): insufficient to cause substantial changes in PNN morphology and expression
- teratogenic effect (rats, mice and rabbits): does not seem to have a teratogenic effect
